Data as given in patent US20090232848A1, “METHODS FOR CULTIVATING LAWSONIA INTRACELLULARIS” (priority 2004, published 2009).
Read-outs that look alike come from different tables or passages of the source.

Legend:
Format in all cases: cell-based, Lawsonia intracellularis
[1] = system: L. intracellularis isolate VP1; conditions: cysteine HCl 0.02%; for Bacteria in the Supernatant / Bacteria in the Supernatant: motility / Monolayer infection by staining: McCoy cells; for Monolayer infection by staining: day 6 or 7 post-infection; for Flagella in lysed material by fluorescent antibody (FITC) staining: hydrochloride
Protocol: In a separate set of experiments, L. intracellularis isolate VP1 (passage 23) was used to infect McCoy cell monolayers. The cells were then placed in a microaerophilic environment for 15 days. […] Flasks were re-fed with fresh media. […] Monolayer cells from the flask were lysed using water. Briefly, media from the flask was removed, and approximately 16 ml of sterile de-ionized water was added to the flask, followed by incubation at 37° C. for 10 min. […] The flask was then gently tapped against the palm of the hand, and a drop of the lysed material was observed under a microscope. […] A 4.25% NaCl solution was immediately added to bring the media to near normal physiological osmolarity.
The lysed material was centrifuged at 3200×g for 15 minutes. The resultant pellet was re-suspended in 41 ml of DMEM with 7% FBS, and was used to infect fresh McCoy cells. 35 ml of this lysed L. intracellularis infective material was added to one 175 cm^2 flask seeded with McCoy cells, and 0.5 ml to one seeded Trac bottle. Both the flask and the Trac bottle were evacuated with a vacuum at 15 psi of Hg, and then purged with pure hydrogen. 5 ml and 0.5 ml of the material were also used to infect McCoy cells seeded in a 25 cm^2 flask and a Trac bottle, respectively. Following evacuation with 15 psi of vacuum and a nitrogen flush, a 5× stock solution of cysteine HCl was added to the 25 cm^2 flask and the corresponding Trac bottle to a final concentration of 0.02%. All flasks and Trac bottles were incubated at 37° C. in an incubator containing 8.0% oxygen, 8.8% carbon dioxide and 83.2% nitrogen. Re-feeding was carried out as described above; the flask and Trac bottle which received cysteine HCl were also refed to the same final concentration (0.02%).
The infection was monitored on day 6 or 7 post-infection by immunoperoxidase staining of the corresponding cover slips as described above. Infection was also monitored by flourescent antibody staining. Briefly, cell lysate was collected on a Cytospin microscopic slide using a Cytofunnel sample chamber (Shandon Inc.; Pittsburg, Pa.) and centrifugation for 10 min at 1500 rpm. The sample was air dried and fixed in acetone for 30 sec. The smear was then covered with a 1:400 dilution of rabbit anti-L. intracellularis polyclonal serum and incubated at 37° C. for 30 min. The slide was washed gently with PBS, and a 1:20 dilution of fluorescein-labeled Goat anti-rabbit IgG (H+L; Kirkegaard & Perry Labs) was added to the smear, and the slide was incubated at 37° C. for 30 min. It was then observed under a fluorescent microscope.

[2] = system: L. intracellularis (STR isolate); conditions: after 10 passages; McCoy cells; cysteine hydrochloride 0.02%, no hydrogen purge
Protocol: The bacteria were passaged by cell lysis. Supernatants and cell lysates were prepared from both flasks, as described earlier, and were used to infect fresh monolayers of McCoy cells seeded into 25 cm^2 or 75 cm^2 flasks at split ratios of 1:1 or 1:2, depending on the extent of infection as determined by immunostaining of the 48-well plate monolayers.
The 48-well plates infected with or without cysteine hydrochloride were fixed with 80% acetone on day 5 post-infection, and stained using the immunoperoxidase and immunofluorescence methods as described previously. The percent of McCoy cells infected using hydrogen gassing versus cysteine HCl was evaluated after each bacterial passage.

[3] = system: L. intracellularis swine isolate VP1; conditions: McCoy cells; for Monolayer infection by immunoperoxidase staining: day 5 or 6 post-infection
Protocol: L. intracellularis swine isolate VP1 (passage 17) was used to infect McCoy cells. McCoy cells were seeded in tissue culture flasks at 1.25×10^5 cells per 25 cm^2 flask, and 1.25×10^4 cells per Trac bottle (Bibby Sterilin Ltd.; Staffordshire, United Kingdom), in DMEM supplemented with 7% fetal bovine serum (FBS). The Trac bottle was used to monitor simulative infection in the flask. The flasks and Trac bottles were incubated overnight at 37° C. in a humidified incubator with 5% CO2. The following day, cells in both the flask and Trac bottle were infected with the L. intracellularis swine isolate (passage 17) in fresh DMEM with 7% FBS. After the addition of L. intracellularis, the flasks and Trac bottles were treated in three different ways. One flask and the corresponding Trac bottle were evacuated at 15 psi of Hg vacuum and purged with pure hydrogen. A second flask and the corresponding Trac bottle were neither evacuated nor purged with hydrogen, but instead received a supplement of cysteine hydrochloride (Sigma, C-7477; St. Louis, Mo.), β-NAD and phoshatidylcholine to a final concentration of 0.01%, 5 mM and 100 ng/ml, respectively, during the first two passages, and only cysteine hydrochlride (0.02% final concentration) during the later passages. The third flask and the corresponding Trac bottle were not evacuated or purged with hydrogen, nor received any supplements. All flasks and Trac bottles were incubated at 37° C. in an incubator containing 8.0 % O2 and 8.8% CO2 and 83.2% N2. On day 2 and 5 post-infection, 50% of the media from all flasks and Trac bottles was replaced with fresh DMEM with 5% FBS with or without cysteine hydrochloride, β-NAD and phoshatidylcholine.
On day 5 or 6 post-infection, the monolayers in the tissue culture flasks were monitored by immunoperoxidase staining of the corresponding Trac bottle cover slip. Briefly, the cover slip from the Trac bottle was removed and washed gently with Phosphate Buffered Saline (PBS), and bound to a microscope slide using a permanent glue. The cover slip then was fixed in acetone for 30 sec at room temperature. Rabbit anti-L. intracellularis polyclonal antibody, diluted 1:400 in PBS, was added to cover the entire cover slip, which was then incubated in a humidified environment at 37° C. for 30 min. The cover slip was washed gently with PBS and a 1:20 dilution of peroxidase-conjugated goat anti-rabbit IgG (H+L; Kirkegaard & Perry Laboratories, Inc.; Gaithersburg, Md.) was added to the cover slip and incubated for 30 min at 37° C. Peroxidase substrate solution was prepared by dissolving 10 mg of 3,3′-Diaminobenzidine (DAB; Sigma-Aldrich; St. Louis, Mo.) in 20 ml of PBS. After filtration through Whatman 113V filter paper (Whatman International Ltd.; Kent, United Kingdom), 40 μl of 30% H2O2 was added to the dissolved substrate. The final substrate solution was added to the cover slip and incubated at room temperature for 5 min. After rinsing with tap water, the cover slip was counterstained for 30 sec using Modified Harris Hematoxylin Solution (Sigma-Aldrich). The stained slide then was rinsed with tap water and observed under a microscope. Infection of the McCoy cells was also assessed by microscopic viewing of the bacteria in the media within the flask.
The infected McCoy cells in the flask were lysed using a 0.1% potassium chloride (KCl) solution on day 6 or 7 post-infection. The lysed material was used to re-infect fresh McCoy cell monolayers in flasks and Trac bottles. Briefly, after removing the media from the flask, a 0.1% KCl solution was added (5 ml per 25 cm^2) and incubated at 37° C. for 5-10 min. The KCl solution was removed from the flask, and 2 ml of sucrose potassium glutamate (SPG; 0.218M sucrose, 0.0038M KH2PO4, 0.0072M K2H PO4, and 0.0049M potassium glutamate) with 5% FBS was added. A cell scraper was then used to remove the cells from the flask. They were then lysed by forcing them through a syringe fitted with a 18 ga needle. […]

[4] = system: L. intracellularis swine isolate PHE/MN-001; conditions: p49, after 9 passages, McCoy cells, cysteine hydrochloride 0.02%
Protocol: Two 75 cm^2 flasks were seeded in a similar manner as described for the hamster STR isolate, starting with 6×10^5 McCoy cells in DMEM with 7% FBS, and incubated overnight at 37° C. in 5% CO2. […] The following day, the flasks were infected using the supernatant and cell lysate from L. intracellularis (PHE/MN-001 isolate)-infected McCoy cells at passage 40. One flask was evacuated, supplemented with 0.02% cysteine hydrochloride, purged with hydrogen, and placed in the incubator. The second flask was supplemented with 0.02% cysteine hydrochloride and placed in the incubator without first purging using hydrogen. The two 48-well plates were infected with L. intracellularis in parallel with the two flasks, and once again served as controls for monitoring the infection and for immunostaining. The flasks and 48-well plates were incubated in the incubator at 8.0% CO2, 8.8% O2 and 83.2% N2. The flasks were re-fed with 50% volume of media on day 2 and day 5 post-infection using DMEM with 5% FBS.
The bacteria were passaged by cell lysis, as described in earlier. […] The percent of McCoy cells infected with cysteine hydrochloride and hydrogen gassing, as compared with cysteine HCl alone, was evaluated after each bacterial passage.

[5] = system: L. intracellularis hamster isolate STR; conditions: McCoy cells; day 5 post-infection; cysteine hydrochloride 0.02%
Protocol: The cells were incubated overnight at 37° C. in 5% CO2, and were infected the next day with ˜5×10^5 bacteria per 25 cm^2flask. The infected flasks and the 48-well plates were evacuated at 15 psi of Hg vacuum and purged with hydrogen. A second set of flasks and corresponding Trac bottles were evacuated and purged with pure nitrogen, and cysteine hydrochloride was added to a final concentration of 0.02%. The infected flasks and plates were incubated in a bi-gas incubator at 8.0% CO2, 8.8% O2 and 83.2% N2. The flasks were re-fed with 50% volume of media on day 2 and day 5 post-infection, using DMEM with 5% FBS. A determination of the degree of infection was made on day 5 using immunoperoxidase staining. Lysis and re-infection were carried out based on the extent of infection as monitored by immunostaining of 48-well plate infections (routinely on day 7 post-infection). The media supernatant was collected from the flasks and centrifuged at 3500 g for 30 minutes. The supernatant was discarded and the pellet resuspended in SPG with 5% FBS. The monolayers were washed with PBS, followed by the addition of water and incubation at 37° C. for 15 min, at which time cells began detaching from the flask. The cells were then lysed by passaging 4 to 5 times through a syringe fitted with an 18 ga needle. The lysate was centrifuged at 350 g for 5 min to pellet the cell nuclei. […]

[6] = passage P18, Treatment 2 = cysteine HCl 0.01% + β-NAD 5 mM + phosphatidylcholine 100 ng/ml
[7] = passage P18, Treatment 2 = cysteine HCl 0.01% + β-NAD + phosphatidylcholine
[8] = passage P19, Treatment 2 = cysteine HCl 0.01% + β-NAD + phosphatidylcholine

Row | Structure (SMILES) | Bacteria in the Supernatant ([1]; passage P25) | Bacteria in the Supernatant: motility ([1]; passage P25) | Monolayer infection by staining ([1]; passage P26) | L. intracellularis infection of McCoy cells compared to infection using hydrogen gassing [1] | Viability of L. intracellularis ([1]; inactive culture after 15 days in microaerophilic environment) | Flagella in lysed material by fluorescent antibody (FITC) staining ([1]; passage P25) | Flagella in lysed material by fluorescent antibody (FITC) staining ([1]; passage P25, listed as cysteine chloride) | Culture expansion from one 25 cm^2 flask (increase) [2] [fold] | Bacteria in the Supernatant [3, 6] | Monolayer infection by immunoperoxidase staining [3, 7] | Monolayer infection by immunoperoxidase staining [3, 8] | Monolayer infection by immunoperoxidase staining ([3]; passage P20, cysteine HCl 0.02% only) | Bacteria in the Supernatant ([3]; passage P21, cysteine HCl 0.02% only) | Bacterial Counts (per ml supernatant) ([4]; Split Ratio 1:2) | Bacterial Counts (per ml supernatant) ([4]; Split Ratio 1:4) | Infection by immunoperoxidase staining of cover slips [5] | Monolayer infection by staining ([1]; passage P25) | Bacteria in the Supernatant ([3]; passage P20)
1 | Cl.N[C@@H](CS)C(=O)O [cysteine hydrochloride] | Slightly positive, | highly motile | 50-60% infection | enhanced | viability could be restored | elevated flagellar expression | showed large numbers of flagella. | 12 | Slightly positive | Little or no infection | 20% | 30-40% (larger foci of | Highly positive | 8.5 × 10^7 per ml supernatant | 5.8 × 10^7 per ml supernatant | about 20% |  | 
2 | [HH] [hydrogen, reference compound] | Slightly positive, | Normal motilty |  |  |  |  |  | 4 | Positive | 60-70% | ≧80% |  |  |  |  | about 20% | Lesser infection (smaller and | Highly positive
